Measured values as given in US10253081B2, “Glucagon analogues” (Zealand Pharma A/S, priority 2012, dated 2019).
*1 amine or outer side, *2 acyl side, *3 side chain or, on linkers, in order; H or OH if unused. Where a SMILES comes first, the peptide text is derived from it. Side-chain parts run from the residue outwards. [ ]: non-standard residue; d: D form. The star is where a group is joined. γGlu = O=C(O)[C@H](CCC(=O)[*:2])N[*:1]; Palmitoyl = CCCCCCCCCCCCCCCC(=O)*; Aib = CC(C)(N)C(=O)O

Experiments:
[1] = target: T1, endogenous glucagon receptor (Rattus norvegicus, UniProt P30082); assay: Agonistic activity on endogenous glucagon receptor (glycogen synthesis rate in primary rat hepatocytes); format: cell-based; details: inhibition of glycogen synthesis rate, 3 hours, read-out: EC50 GLP-1R Rat hepat.
T1 construct: Agonistic activity of the test compounds on endogenous glucagon receptor; endogenous in cells; host or cells: primary rat hepatocytes
T1 sequence (P30082 27-485): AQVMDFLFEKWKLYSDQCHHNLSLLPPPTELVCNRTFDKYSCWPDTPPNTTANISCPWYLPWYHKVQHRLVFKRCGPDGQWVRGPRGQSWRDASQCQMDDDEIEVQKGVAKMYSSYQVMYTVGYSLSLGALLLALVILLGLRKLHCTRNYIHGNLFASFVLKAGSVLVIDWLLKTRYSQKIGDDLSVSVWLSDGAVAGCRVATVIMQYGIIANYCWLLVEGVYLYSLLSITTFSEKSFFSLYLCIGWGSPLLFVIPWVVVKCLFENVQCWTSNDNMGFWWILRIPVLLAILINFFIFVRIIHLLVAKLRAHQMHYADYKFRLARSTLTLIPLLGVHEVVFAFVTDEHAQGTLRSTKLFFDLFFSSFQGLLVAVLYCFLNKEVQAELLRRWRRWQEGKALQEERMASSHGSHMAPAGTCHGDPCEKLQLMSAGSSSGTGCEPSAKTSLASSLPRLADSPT
Procedure, shortened: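 Primary rat hepatocytes (40,000 cells/well, cultured 24 h) incubated 3 h with compound in KRBH buffer with 0.1% BSA, 22.5 mM glucose and D-[U14C]glucose. 14C incorporated into precipitated glycogen counted, background-subtracted and expressed as % of 0.1% DMSO vehicle (100% CTL). pEC50 from cpm versus log concentration; agonism lowers glycogen synthesis.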

[2] = Oral glucose tolerance test (OGTT); format: in vivo, C57BL/6J mice; details: blood glucose AUC 0-120 min, 10 nmol/kg s.c. 4 h before oral glucose 2 g/kg
Experimental: Male C57BL/6J mice were fasted for 10 h before they received an oral glucose bolus of 2 g/kg body weight. Peptides were dissolved in saline buffered with 25 mM phosphate and administered at a dose of 10 nmol/kg body weight by subcutaneous injection 4 h before the glucose bolus. Control animals received a vehicle injection only. Group size was 7 animals per group. A pre-dose and a pre-glucose (0 min) blood sample were obtained by tail bleeding and blood glucose was measured with a glucometer. Additional samples of tail blood for measuring blood glucose were obtained 15 min, 30 min, 60 min, 90 min and 120 min after the glucose challenge. […] Calculation of AUC was done by the trapezoidal rule without baseline correction. The data are presented as mean±S.E.M. Statistical comparisons were conducted by one-way ANOVA followed by Tukey's post test. Vehicle alone was used as a control.

[3] = target: T2, human glucagon-like peptide 1 receptor (GLP-1R) (Homo sapiens, UniProt P43220); assay: GLP-1 receptor efficacy assay (cAMP AlphaScreen, CHO cells); format: cell-based; details: Table 1A; for EC50: CHO cells expressing human GLP-1-R, cAMP, read-out: EC50 hGLP-1R CHO-K1; for Ratio GLP-1/Glucagon: EC50 [GLP-1R]/EC50 [Glucagon-R]
T2 construct: expressed in transfected cells
T2 sequence (P43220 24-463): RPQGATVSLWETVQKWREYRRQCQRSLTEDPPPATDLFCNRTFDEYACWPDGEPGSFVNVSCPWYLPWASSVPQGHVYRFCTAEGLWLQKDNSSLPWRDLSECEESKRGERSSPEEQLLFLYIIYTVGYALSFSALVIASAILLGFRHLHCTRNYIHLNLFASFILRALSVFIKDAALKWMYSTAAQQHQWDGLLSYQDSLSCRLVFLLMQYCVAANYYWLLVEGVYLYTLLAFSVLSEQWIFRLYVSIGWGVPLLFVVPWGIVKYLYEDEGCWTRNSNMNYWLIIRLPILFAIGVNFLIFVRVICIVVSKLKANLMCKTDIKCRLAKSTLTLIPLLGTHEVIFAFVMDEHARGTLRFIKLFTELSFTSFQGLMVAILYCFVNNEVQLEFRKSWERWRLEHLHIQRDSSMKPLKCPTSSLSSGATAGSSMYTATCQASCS
Procedure, shortened: (§1)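 Stably transfected CHO clones expressing human GLP-1R or glucagon receptor were treated with increasing peptide concentrations for 15 min at room temperature in KRBH containing 0.1 mM IBMX. After lysis, cAMP was quantified by AlphaScreen; EC50 and efficacy relative to GLP-1 or glucagon reference came from curve fitting.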

[4] = target: T3, human glucagon receptor (Glucagon-R) (Homo sapiens, UniProt P47871); assay: Glucagon receptor efficacy assay (cAMP AlphaScreen, CHO cells); format: cell-based; details: Table 1A; CHO cells expressing human Glucagon-R, cAMP; read-out: EC50 hGCGR CHO-K1
T3 construct: expressed in transfected cells
T3 sequence (P47871 26-477): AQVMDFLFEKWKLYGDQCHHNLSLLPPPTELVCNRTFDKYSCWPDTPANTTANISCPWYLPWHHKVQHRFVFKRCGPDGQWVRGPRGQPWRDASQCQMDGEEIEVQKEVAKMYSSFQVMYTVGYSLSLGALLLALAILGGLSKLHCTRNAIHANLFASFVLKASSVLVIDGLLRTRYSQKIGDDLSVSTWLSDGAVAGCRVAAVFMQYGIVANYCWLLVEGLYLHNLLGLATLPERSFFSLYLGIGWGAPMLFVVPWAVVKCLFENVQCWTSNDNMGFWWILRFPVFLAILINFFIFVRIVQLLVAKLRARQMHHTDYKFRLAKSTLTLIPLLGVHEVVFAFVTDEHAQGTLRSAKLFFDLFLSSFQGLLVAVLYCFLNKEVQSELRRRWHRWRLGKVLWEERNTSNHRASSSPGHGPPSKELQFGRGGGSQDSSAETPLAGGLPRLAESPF
Procedure, shortened: as §1

SMILES	EC50 [1]	EC50 [3]	Ratio GLP-1/Glucagon [3]	EC50 [4]	AUC (% Ctrl) [2]
CCCCCCCCCCCCCCCC(=O)N[C@@H](CCC(=O)NCCCC[C@H](NC(=O)[C@H](CCC(=O)O)NC(=O)[C@H](CC(=O)O)NC(=O)[C@H](CC(C)C)NC(=O)[C@H](Cc1ccc(O)cc1)NC(=O)[C@H](CCCCN)NC(=O)[C@H](CO)NC(=O)[C@H](Cc1ccc(O)cc1)NC(=O)[C@H](CC(=O)O)NC(=O)[C@H](CO)NC(=O)[C@@H](NC(=O)[C@H](Cc1ccccc1)NC(=O)[C@@H](NC(=O)CNC(=O)[C@H](CCC(N)=O)NC(=O)C(C)(C)NC(=O)[C@@H](N)Cc1c[nH]cn1)[C@@H](C)O)[C@@H](C)O)C(=O)N[C@@H](C)C(=O)N[C@@H](C)C(=O)N[C@@H](CCCCN)C(=O)N[C@@H](CC(=O)O)C(=O)N[C@@H](Cc1ccccc1)C(=O)N[C@H](C(=O)N[C@@H](CCC(=O)O)C(=O)N[C@@H](Cc1c[nH]c2ccccc12)C(=O)N[C@@H](CC(C)C)C(=O)N[C@@H](CCC(=O)O)C(=O)N[C@@H](CO)C(=O)N[C@@H](C)C(N)=O)[C@@H](C)CC)C(=O)O [Compound 15, H-H-Aib-QGTFTSDYSKYLDE-K(Hexadecanoyl-isoGlu)-AAKDFIEWLESA-NH2]	170 pM	190 pM	0.31	610 pM	42 % Ctrl
CCCCCCCCCCCCCCCC(=O)N[C@@H](CCC(=O)NCCCC[C@H](NC(=O)[C@H](CO)NC(=O)[C@H](CC(=O)O)NC(=O)[C@H](CC(C)C)NC(=O)[C@H](Cc1ccc(O)cc1)NC(=O)[C@H](CCCCN)NC(=O)[C@H](CO)NC(=O)[C@H](Cc1ccc(O)cc1)NC(=O)[C@H](CC(=O)O)NC(=O)[C@H](CO)NC(=O)[C@@H](NC(=O)[C@H](Cc1ccccc1)NC(=O)[C@@H](NC(=O)CNC(=O)[C@H](CCC(N)=O)NC(=O)[C@H](CO)NC(=O)[C@@H](N)Cc1c[nH]cn1)[C@@H](C)O)[C@@H](C)O)C(=O)N[C@@H](C)C(=O)N[C@@H](C)C(=O)N[C@@H](Cc1c[nH]cn1)C(=O)N[C@@H](CC(=O)O)C(=O)N[C@@H](Cc1ccccc1)C(=O)N[C@H](C(=O)N[C@@H](CCC(=O)O)C(=O)N[C@@H](Cc1c[nH]c2ccccc12)C(=O)N[C@@H](CC(C)C)C(=O)N[C@@H](CC(C)C)C(=O)N[C@@H](CO)C(N)=O)C(C)C)C(=O)O [Compound 8, H-HSQGTFTSDYSKYLDS-K(Hexadecanoyl-isoGlu)-AAHDFVEWLLS-NH2] (H-HSQGTFTSDYSKYLDSK([γGlu-Palmitoyl])AAHDFVEWLLS-NH2)	1100 pM	410 pM	1.41	290 pM	50 % Ctrl
CCCCCCCCCCCCCCCC(=O)N[C@@H](CCC(=O)NCCCC[C@H](NC(=O)[C@H](CO)NC(=O)[C@H](CC(=O)O)NC(=O)[C@H](CC(C)C)NC(=O)[C@H](Cc1ccc(O)cc1)NC(=O)[C@H](CCCCN)NC(=O)[C@H](CO)NC(=O)[C@H](Cc1ccc(O)cc1)NC(=O)[C@H](CC(=O)O)NC(=O)[C@H](CO)NC(=O)[C@@H](NC(=O)[C@H](Cc1ccccc1)NC(=O)[C@@H](NC(=O)CNC(=O)[C@H](CCC(N)=O)NC(=O)[C@H](CO)NC(=O)[C@@H](N)Cc1c[nH]cn1)[C@@H](C)O)[C@@H](C)O)C(=O)N[C@@H](C)C(=O)N[C@@H](C)C(=O)N[C@@H](CCC(=O)O)C(=O)N[C@@H](CC(=O)O)C(=O)N[C@@H](Cc1ccccc1)C(=O)N[C@H](C(=O)N[C@@H](CCC(=O)O)C(=O)N[C@@H](Cc1c[nH]c2ccccc12)C(=O)N[C@@H](CC(C)C)C(=O)N[C@@H](CC(C)C)C(=O)N[C@@H](CCCNC(=N)N)C(=O)N[C@@H](C)C(N)=O)C(C)C)C(=O)O [Compound 7, H-HSQGTFTSDYSKYLDS-K(Hexadecanoyl-isoGlu)-AAEDFVEWLLRA-NH2] (H-HSQGTFTSDYSKYLDSK([γGlu-Palmitoyl])AAEDFVEWLLRA-NH2)	1920 pM	270 pM	0.60	450 pM	57 % Ctrl

Stronger by EC50 [1], values ahead:

EC50 [1]	EC50 [3]	Ratio GLP-1/Glucagon [3]	EC50 [4]	SMILES	AUC (% Ctrl) [2]
160 pM	910 pM	2.60	350 pM	CCCCCCCCCCCCCCCC(=O)N[C@@H](CCC(=O)NCCCC[C@H](NC(=O)[C@H](CO)NC(=O)[C@H](CC(=O)O)NC(=O)[C@H](CC(C)C)NC(=O)[C@H](Cc1ccc(O)cc1)NC(=O)[C@H](CCCCN)NC(=O)[C@H](CO)NC(=O)[C@H](Cc1ccc(O)cc1)NC(=O)[C@H](CC(=O)O)NC(=O)[C@H](CO)NC(=O)[C@@H](NC(=O)[C@H](Cc1ccccc1)NC(=O)[C@@H](NC(=O)CNC(=O)[C@H](CCC(N)=O)NC(=O)[C@H](CO)NC(=O)[C@@H](N)Cc1c[nH]cn1)[C@@H](C)O)[C@@H](C)O)C(=O)N[C@@H](C)C(=O)N[C@@H](C)C(=O)N[C@@H](Cc1c[nH]cn1)C(=O)N[C@@H](CC(=O)O)C(=O)N[C@@H](Cc1ccccc1)C(=O)N[C@H](C(=O)N[C@@H](CCC(=O)O)C(=O)N[C@@H](Cc1c[nH]c2ccccc12)C(=O)N[C@@H](CC(C)C)C(=O)N[C@@H](CC(C)C)C(=O)N[C@@H](CCCNC(=N)N)C(=O)N[C@@H](C)C(=O)O)C(C)C)C(=O)O [Compound 3, H-HSQGTFTSDYSKYLDS-K(Hexadecanoyl-isoGlu)-AAHDFVEWLLRA-OH] (H-HSQGTFTSDYSKYLDSK([γGlu-Palmitoyl])AAHDFVEWLLRA-OH)	70 % Ctrl
100 pM	530 pM	0.98	540 pM	CCCCCCCCCCCCCCCC(=O)N[C@@H](CCC(=O)NCCCC[C@H](NC(=O)[C@H](CCC(=O)O)NC(=O)[C@H](CC(=O)O)NC(=O)[C@H](CC(C)C)NC(=O)[C@H](Cc1ccc(O)cc1)NC(=O)[C@H](CCCCN)NC(=O)[C@H](CO)NC(=O)[C@H](Cc1ccc(O)cc1)NC(=O)[C@H](CC(=O)O)NC(=O)[C@H](CO)NC(=O)[C@@H](NC(=O)[C@H](Cc1ccccc1)NC(=O)[C@@H](NC(=O)CNC(=O)[C@H](CCC(N)=O)NC(=O)C(C)(C)NC(=O)[C@@H](N)Cc1c[nH]cn1)[C@@H](C)O)[C@@H](C)O)C(=O)N[C@@H](CCCNC(=N)N)C(=O)N[C@@H](C)C(=O)N[C@@H](CCCCN)C(=O)N[C@@H](CC(=O)O)C(=O)N[C@@H](Cc1ccccc1)C(=O)N[C@H](C(=O)N[C@@H](CCC(=O)O)C(=O)N[C@@H](Cc1c[nH]c2ccccc12)C(=O)N[C@@H](CC(C)C)C(=O)N[C@@H](CC(C)C)C(=O)N[C@@H](CO)C(=O)N[C@@H](C)C(=O)O)[C@@H](C)CC)C(=O)O [Compound 14, H-H-Aib-QGTFTSDYSKYLDE-K(Hexadecanoyl-isoGlu)-RAKDFIEWLLSA-OH] (H-H[Aib]QGTFTSDYSKYLDEK([γGlu-Palmitoyl])RAKDFIEWLLSA-OH)	59 % Ctrl
40 pM	230 pM	1.00	230 pM	CCCCCCCCCCCCCCCC(=O)N[C@@H](CCC(=O)NCCCC[C@H](NC(=O)[C@H](CCC(=O)O)NC(=O)[C@H](CC(=O)O)NC(=O)[C@H](CC(C)C)NC(=O)[C@H](Cc1ccc(O)cc1)NC(=O)[C@H](CCCCN)NC(=O)[C@H](CO)NC(=O)[C@H](Cc1ccc(O)cc1)NC(=O)[C@H](CC(=O)O)NC(=O)[C@H](CO)NC(=O)[C@@H](NC(=O)[C@H](Cc1ccccc1)NC(=O)[C@@H](NC(=O)CNC(=O)[C@H](CCC(N)=O)NC(=O)[C@H](CO)NC(=O)[C@@H](N)Cc1c[nH]cn1)[C@@H](C)O)[C@@H](C)O)C(=O)N[C@@H](C)C(=O)N[C@@H](C)C(=O)N[C@@H](Cc1c[nH]cn1)C(=O)N[C@@H](CCC(=O)O)C(=O)N[C@@H](Cc1ccccc1)C(=O)N[C@H](C(=O)N[C@@H](CCC(=O)O)C(=O)N[C@@H](Cc1c[nH]c2ccccc12)C(=O)N[C@@H](CC(C)C)C(=O)N[C@@H](CCC(=O)O)C(=O)N[C@@H](CO)C(=O)N[C@@H](C)C(N)=O)C(C)C)C(=O)O [Compound 10, H-HSQGTFTSDYSKYLDE-K(Hexadecanoyl-isoGlu)-AAHEFVEWLESA-NH2] (H-HSQGTFTSDYSKYLDEK([γGlu-Palmitoyl])AAHEFVEWLESA-NH2)	46 % Ctrl
